Measured values: patent US12385042B2, “Cell-penetrating peptides” (VECTIOPEP OÜ, priority 2019, dated 2025)
Entries after “also recorded” stand apart in the source; their conditions may differ. Where a SMILES comes first, the peptide text is derived from it. Bridges are numbered along the chain shown (N, C = ends). Roman numbers before positions name the chains, in order. [ ]: non-standard residue; d: D form. The star is where a group is joined. Stearoyl = CCCCCCCCCCCCCCCCCC(=O)*; Orn = NCCC[C@H](N)C(=O)O

Experiments:
[1] = tested on: U87 MG-luc2 human glioma cells, stably expressing luc2; assay: Luciferase gene downregulation by CPP/siRNA (siLuc2) complexes; type: cell-based; conditions: CPP/siRNA complexes; for Red (%) (reduction, based on remaining luminescence on U87 cells post-treatment): siRNA against luciferase; for luciferase downregulation efficiency (in words): comparison between CPPs
Procedure: For assessing the siRNA mediated RNAi, CHO-GFP or U87-luc2 cells (5×10^5 cells per well) were seeded on a 24-well plate a day prior to the experiment and grown in serum containing media. On experiment day, prior to adding pre-formed complexes ( 1/10th of the final volume per well), media was replaced with fresh serum containing medium.
For complex formation, peptide was mixed with luc2 siRNA (sense 5′-[…]-3′ (SEQ ID NO:7), antisense 5′-[…] 3′ (SEQ ID NO:8), Metabion, Germany) or with siRNA against GFP (5′-[…] (SEQ ID NO:9), 3′-[…] (SEQ ID NO:10)) in mQ water (pH 5.3-6.3) using peptide to siRNA molar ratios (MR is the ratio of peptide to siRNA) […] and incubated at RT for 1 h. For siLuc2, the final concentration in media was 25 nM and for siGFP 100 nM. Cells were co-incubated with complexes for 4 h (37° C., 5% CO2), thereafter fresh serum containing media was added and followed by further incubation (20 h for siLuc2 or 44 h for siGFP complexes). Luciferase gene downregulation was measured from cell lysates with Promega luciferase assay system (Promega, Sweden) in combination with GLOMAX 96 microplate luminometer equipped with GLOMAX 1.9.2 software (Promega). GFP was measured after treatment from cell lysates on black 96-well plates by measuring total fluorescence (Symergy MX, BioTek Instruments, USA equipped with Gen5 1.10 software). The results were normalized to the protein content of each sample (DC Protein Assay, BioRad, USA).
Luciferase activity was determined as described in previous paragraph.
For determination of pH dependency on the transfection efficiency, complexes were formed at MR30, incubated and diluted before addition to cells to obtain siRNA final concentration 10 nM in transfection media. HEPES buffer supplemented with 10% FBS was used as transfection media. Complexes were co-incubated with cells for 4 h and then media was replaced with cell growth media. After further 20 h incubation cells were lysed and analyzed as described previously.
The experiment was carried out in serum containing media (10% FBS). CPP/siRNA complexes were formed at different molar ratios with siRNA concentration kept constant (50 nM in transfection media). Luminescence from luciferin-luciferase reaction was measured at 24 hours post-treatment from cell lysate. Results were normalized to protein content and luminescence values from untreated cells (100%).

CHO cells = assay: pDNA (p-CMV-Luc2) transfection with CPP/pDNA complexes; type: cell-based; conditions: serum containing medium, CR1 to CR4, 24 h
Procedure: For the pDNA transfection experiment, CPP/pDNA nanoparticles were prepared by mixing […] of plasmid (p-CMV-Luc2) with the peptide in MQ water. Charge ratios from 1 to 4 (CR, equivalent to the nitrogen-to-phosphate ratio) were used. 50,000 CHO cells were seeded 24 hr before the experiment into 24-well plates, treated with complexes for 4 h in serum-containing medium, incubated for additional 20 hr, lysed and luminescence was measured.

[2] = Negative staining TEM of CPP/siRNA nanoparticles; type: physicochemical; conditions: CPP/siRNA complexes at MR30
Procedure: For the morphological analysis the CPP/siRNA complexes were assembled as described above at MR30. For negative staining, copper grids were covered with Formvar film and carbon layer using Leica EM ACE600 carbon coater (Leica Microsystems, Germany). Then, 10 μL of each sample was absorbed to the grids for 2 min and excess of solution was gently removed. Samples were then exposed to 2% aqueous uranyl acetate solution for 1 min. After removing excess stain with filter paper, the samples were allowed to air-dry. The samples were examined at 120 kV accelerating voltage on FEI Tecnai G2 Spirit electron microscope (FEI, The Netherlands).

[3] = Fluorescent dye (PicoGreen) intercalation and heparin displacement assay of CPP/siRNA complexes; type: physicochemical; conditions: 0.5 mg/ml heparin, complexes pre-formed at MR30
Procedure: Complexation of siRNA and CPPs was assessed by Quant-iT™ PicoGreen® (PG) (Thermo Fisher Scientific, USA) assay in mQ water. Complexes were prepared as described previously, following addition of diluted PG. For detection, complexes (⅕ of volume), water (3/5) and PG (1/5) working dilution was incubated for 5 minutes and fluorescence was measured by fluorimeter (λex=492 nm, λem=535 nm) (SynergyMx, BioTek). For heparin displacement, instead of water, heparin salt solution at different concentrations were used and complexes incubated at 37° C. for 30 min before addition of PG dilution. Complex formation was also confirmed by gel electrophoresis (details in section 2.11).

murine red blood cells = assay: Membrane activity assay on murine red blood cells: hemolysis; type: cell-based, mouse
Procedure: For evaluation of membrane activity of peptides, hemolysis assay was used. For this whole blood was collected from mouse (adult, BALB/c) saphenous vein into a heparinized collection tube. Blood was centrifuged (2300× g, 15 min) to separate cells (red blood cells-RBC) from the plasma. RBCs were washed according to following procedures.
RBCs were washed with 10 ml 0.9% NaCl saline and centrifuged (600× g, 15 min). Supernatant was discarded after each centrifugation. This was repeated at least 3 times. RBCs were re-suspended in 5 ml saline and distributed equally to tubes and centrifuged (600× g, 15 min). The cells were washed and re-suspended in 2× PBS with the required pH (pH 5.5-7.5). The hemoglobin content in stocks was measured after lysis of cells with equal volume of 0.1% Triton X100 supplemented with 5% glucose. The cell suspension was diluted accordingly for each pH value to obtain similar concentration range of hemoglobin in stocks. To each 100 ul of peptide solution 100 ul of 10% glucose was added, mixed, and equal volume (200 ul) of RBC in 2× PBS were added and gently mixed. Peptide solution with RBCs was incubated at 37° C. for 1 h with gentle mixing (max 300 rpm) after which samples were centrifuged to pellet intact cells from the solution. Hemoglobin from lysed cells was determined from each sample from the supernatant on transparent 96-well plates by measuring the absorbance at 540 nm.
Controls were incubated in similar manner as samples. As a non-hemolysis control mQ supplemented with glucose (0%) was used and for hemolytic control 0.1% TritonX-100 with glucose (100%) was used (cells are suspended in 2× PBS before addition). Final percent was calculated as follows: […]
For hemolytic concentration determination 2× PBS at pH 7.5 was used for incubation and 1× PBS at pH 7.5 was used for washing. Everything else is as described in previous paragraph.

organs of BALB/c mice = assay: Gene delivery in vivo (CPP/pDNA, i.v., organ luminescence); set-up: species or system mouse; conditions: CR2 or CR4, 50 μg or 20 μg pDNA, 24 h
Procedure: For in vivo pDNA delivery studies BALB/c mice were used. Each animal received a single […] intravenous (i.v.) injection of the complexes at CR2 or CR4. Two doses of pDNA […] were used. After 24 hr, the mice were sacrificed using cervical dislocation, and whole organs were harvested and snap-frozen on dry ice. The organs were homogenized, and luminescence was measured.

Compound	Red (%) (reduction, based on remaining luminescence on U87 cells post-treatment) [1]	pDNA delivery / gene expression in vitro (in words) (CHO cells)	length or size of elongated particles, conglomerates or aggregates (TEM) [2]	other results
HYHHGO^eILLKALKALAKAIL [NF727, group H3; C22 saturated fatty acid on N-terminus; C-terminally amidated]	43	promising vectors for pDNA transfection		
HHHYHHGO^eILLKALKALAKAIL [NF716, group H5; C20 saturated fatty acid on N-terminus; C-terminally amidated]	65	promising vectors for pDNA transfection		
HHHHYHHGO^eILLKALKALAKAIL [NF702, group H6; C18 saturated fatty acid on N-terminus; C-terminally amidated]	70	almost yielded the same gene expression level as that of NF70 and NF55; also recorded: promising vectors for pDNA transfection		
CCCCCCCCCCCCCCCCCC(=O)N[C@@H](C)C(=O)NCC(=O)N[C@@H](Cc1ccc(O)cc1)C(=O)N[C@@H](CC(C)C)C(=O)N[C@@H](CC(C)C)C(=O)NCC(=O)NCCC[C@H](N)C(=O)N[C@H](C(=O)N[C@@H](CC(N)=O)C(=O)N[C@@H](CC(C)C)C(=O)N[C@@H](CCCCN)C(=O)N[C@@H](C)C(=O)N[C@@H](CC(C)C)C(=O)N[C@@H](C)C(=O)N[C@@H](C)C(=O)N[C@@H](CC(C)C)C(=O)N[C@@H](C)C(=O)N[C@@H](CCCCN)C(=O)N[C@@H](C)C(=O)N[C@H](C(=O)N[C@@H](CC(C)C)C(N)=O)[C@@H](C)CC)[C@@H](C)CC [NF55, reference compound] (I: H-[Orn]INLKALAALAKAIL-NH2 / II: Stearoyl-AGYLLG; amide I:1-II:C)	75		up to 100 nm	nanoparticle diameter / size (TEM) [2]: 10-50 nm; siRNA accessible [3]: 10%; HC50 CPP/siRNA complex (peptide concentration) (murine red blood cells; CPP/siRNA complexes at MR30): 3.2 µM; HC50 Free peptide (murine red blood cells; free peptide, pH 7.5): 1.7 µM; increase of hemolytic activity at pH 5.5 (murine red blood cells; peptide 0.75 uM, buffer pH 5.5): 25%; pH dependent hemolytic activity (in words) (murine red blood cells; peptide 0.75 uM, buffer pH 5.5-7.5): least influenced by the pH decrease
HYHHGO^eILLKALKALAKAIL [NF725, group H3; C18 saturated fatty acid on N-terminus; C-terminally amidated]	60	promising vectors for pDNA transfection		reporter gene expression in organs after i.v. CPP/pDNA (in words) (organs of BALB/c mice): high gene expression level in liver; also recorded: higher at CR4 than CR2
HHHHYHHGO^eILLKALKALAKAIL [NF703, group H6; C22 saturated fatty acid on N-terminus; C-terminally amidated]	73		10-20 nm	luciferase downregulation efficiency (in words) [1]: RNA interference effect decreases again
HHHHYHHGO^eILLKALKALAKAIL [NF700, group H6; without fatty acid; C-terminally amidated]	6		exceed 500 nm	luciferase downregulation efficiency (in words) [1]: do not reveal any significant luciferase silencing activity
